According to patent US12391672B2, “Solid forms comprising (S)-4-(4-(4-(((2-(2,6-dioxopiperidin-3-yl)-1-oxoisoindolin-4-yl)oxy)methyl)benzyl)piperazin-1-yl)-3-fluorobenzonitrile and salts thereof, and compositions comprising and methods of using the same” (Celgene Corporation, priority 2019, dated 2025):
Where “and” joins values, the source holds several entries; their conditions need not be identical. Equal values may be shown once. Entries after “also recorded” stand apart in the source; their conditions may differ.

Experiments:
Assay type in all cases: physicochemical
[1] = Solubility of polymorphic forms in physiologically relevant media and final pH
Text: Solubility data of the several polymorphic forms of Compound 1 in physiologically relevant media and the final pH of these solutions are summarized in the following tables.

[2] = Dynamic vapor sorption / hygroscopicity
Procedure, shortened: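 Sample equilibrated at 50% r.h. on a microbalance, then one cycle at ±5% r.h. h^−1 spanning 0–95% r.h., with 5 h holds at 0% and 95% r.h. and 2 h holds at 50% r.h., run either desorption-first or sorption-first. Hygroscopicity classed from mass gain at 85% r.h. relative to initial mass.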

[3] = Solid state stability under accelerated storage conditions
Procedure, shortened: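 Solid forms stored at 60 °C and 60 °C/75% RH (Form A 1 week, Form B 2 weeks); Form K held 14 d at 40 °C, 40 °C/75% RH, 60 °C, 60 °C/75% RH and light, versus refrigerated/ambient. Assessed by DSC/TGA, appearance, HPLC purity, chiral HPLC (S-isomer area %) and XRPD post-DVS.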

[4] = Mechanical stressing (grinding, compression); conditions: compressed under 2000 psi for 1 minute
Protocol: Mechanical stressing experiment: the following table describes three experiments involving mechanical stressing of Form A and/or Form B of free base Compound 1 by grinding with a mortar and pestle.
Shear Sensitivity: Form K was compressed under 2000 psi for 1 minute and analyzed by XRPD.

[5] = Storage at controlled relative humidities (Form K / Form K′)
Text: It was noticed that after Form K was dried, the XRPD peaks of Form K shifted to a higher value and the resulting XRPD pattern is called Form K′. To further understand the relationships between the two forms, free base Form K and Form K′ were placed on XRPD sample holders and stored in a closed Jars with saturated salt solutions for RH controls at ambient temperature, respectively. […] The XRPD diffractograms of the samples after 2-day storage are presented in FIG. 132 and FIG. 133, respectively. […] Since the peaks of Form K shifted to higher 2-theta value as Form K loses water molecules to Form K′, Form K and Form K′ are on a continuum.

[6] = Competitive slurry and slurry stability experiments; conditions: acetone/water, water contents 5% vol. and higher, room temperature and 45° C.
Protocol: Form B was obtained at room temperature while form C was obtained at 45° C. in acetone alone.
The HBr salt was largely insoluble in various buffers when 1 mg/mL slurries were prepared and the mother liquor concentration determined (by HPLC): <0.05 mg/mL in all buffers tested.

Compound: N#Cc1ccc(N2CCN(Cc3ccc(COc4cccc5c4CN([C@H]4CCC(=O)NC4=O)C5=O)cc3)CC2)c(F)c1.O [Form K of a free base of Compound 1]
- Solubility ([1]; FaSSIF): 1 µg/mL
- Solubility ([1]; FeSSiF): 5 µg/mL
- Solubility ([1]; SGF with pepsin): 420 µg/mL
- Solubility ([1]; Water): <LOQ
- Solubility ([1]; pH 1 buffer HC1/NaC1): 133 µg/mL
- Solubility ([1]; pH 3 buffer (phosphate)): 90 µg/mL
- Solubility ([1]; pH 4 buffer (acetate)): 11 µg/mL
- Solubility ([1]; pH 5 buffer (acetate)): 1 µg/mL
- Final pH ([1]; solubility sample in FaSSIF): 6.33
- Final pH ([1]; solubility sample in FeSSiF): 5.02
- Final pH ([1]; solubility sample in SGF with pepsin): 1.47
- Final pH ([1]; solubility sample in Water): 6.71
- Final pH ([1]; solubility sample in pH 1 buffer HC1/NaC1): 1.20
- Final pH ([1]; solubility sample in pH 3 buffer (phosphate)): 3.09
- Final pH ([1]; solubility sample in pH 4 buffer (acetate)): 3.98
- Final pH ([1]; solubility sample in pH 5 buffer (acetate)): 5.01
- plateau in water uptake ([2]; DVS sorption, corresponding to ~1 mole of water): ~3.2 % w/w
- hygroscopicity ([2]; DVS, class by mass gain at 85% r.h.): slightly hygroscopic (slightly hygroscopic (mass increase of <2% but ≥0.2%))
- solid form after DVS cycle ([2]; after the DVS humidity cycle): stable with respect to application of a DVS cycle
- DVS mass increase ([2]; relative humidity from about 5% to about 95%): about 3.2%
- Physical stability (DSC, PXRD, TGA) ([3]; 14 d at 40° C., 40° C./75% RH, 60° C., 60° C./75% RH, light chamber): there does not appear to be any major change in the crystal form and water content
- physical and chemical stability ([3]; accelerated stability conditions): chemically and physically stable; also recorded: physically and chemically stable
- Solid state chiral stability ([3]; accelerated stability conditions, initial 97.1 area % S-isomer): no change in the chiral stability
- Solid state chemical stability (HPLC) ([3]; accelerated storage conditions, 14 d): no significant degradation was observed
- Solid state chemical stability (HPLC), light ([3]; exposed to light (1.2 million lux)): Minor degradation
- Shear Sensitivity (XRPD) [4]: remained as Form K
- form conversion on storage (XRPD) ([5]; 11% RH, ambient temperature): converts to K′
- critical water activity range for interconversion of Form K and Form K′ ([5]; aH2O): 0.11-0.22 and 0.11-0.17
- PXRD result after storage ([5]; stored at 17% r.h. and r.t. for 5.5 d): Form K
- competitive slurry of Form B, Form C and Form K [6]: most stable form
